Like-named read-outs stand apart in the source and are kept apart here.

Consider three compounds from patent US20190202836A1, “SELECTIVE DUAL INHIBITORS OF PI3 DELTA AND GAMMA PROTEIN KINASES” (Rhizen Pharmaceuticals SA, priority 2014, published 2019).

Data set [1] is described as follows: Metabolic stability in mouse liver microsomes. The data set is classed as in vitro ADME. Conditions: 1 μM test item, 60 minutes, 37° C., NADPH. The procedure: (§1) Metabolic stability studies were conducted on Compounds A, A1, and A2 as well as Example 128 of WO 2012/151525 using mouse, rat, dog, monkey, and human liver microsomes. The protocol for the studies with mouse, rat, and human liver microsomes (all from BD Gentest, USA) is provided below. 0.4 mg protein was preincubated with 2 mM NADPH (cofactor) in phosphate buffer (pH-7.4) for 15 minutes at 37° C. and then added with 1 μM test item and incubated further for 60 minutes in triplicate. The reaction mixture was terminated with methanol containing an internal standard and centrifuged further to analyze the test item remaining in the supernatant by LC-MS/MS. The percent parent compound remaining was calculated in comparison with similar samples terminated at 0 minutes.
In general terms: Liver microsomes are a subcellular fraction often used to study metabolism.

Data set [2] in a line: Metabolic stability in rat liver microsomes. It is filed as in vitro ADME. The settings on record: 1 μM test item, 60 minutes, 37° C., NADPH. The procedure: as §1
Data set [3] in a line: Metabolic stability in dog liver microsomes. It is filed as in vitro ADME.
Data set [4] in a line: Metabolic stability in monkey liver microsomes. It is filed as in vitro ADME. The procedure: as §1
Data set [5] in a line: Metabolic stability in human liver microsomes. The settings on record: 1 μM test item, 60 minutes, 37° C., NADPH. It is filed as in vitro ADME. The procedure: as §1
In data set [6] the target is PI3Kδ (Homo sapiens, UniProt O00329). The data set can be described thus: Assay 1: Fluorescent (HTRF) determination of PI3 kinase enzyme activity, PI3Kδ. The data set is classed as biochemical. An excerpt: (§2) Phosphoinositide 3 kinases (PI3K) belong to a class of lipid kinases that play a critical role in the regulation of several key cellular processes. The PI3K are capable of phosphorylating the 3-hydroxy position of phosphoinositols thereby generating second messengers involved in downstream signaling events. The homogenous time resolved fluorescence (HTRF) assay allows detection of 3,4,5-triphosphate (PIPS) formed as a result of phosphorylation of phosphotidylinositol 4,5-biphosphate (PIP2) by PI3K isoforms such as α, β, γ or δ.
(§3) PI3K isoform activity for α, β, γ or δ was determined using a PI3K human HTRF™ Assay Kit (Millipore, Billerica, Mass.) with modifications. All incubations were carried out at room temperature. 0.5 μl of 40× inhibitor (in 100% DMSO) or 100% DMSO were added to each well of a 384-well white plate (Greiner Bio-One, Monroe, N.C.) containing 14.5 μl 1× reaction buffer/PIP2 (10 mM MgCl2, 5 mM DTT, 1.38 μM PIP2) mix with or without enzyme, followed by 5 μl/well of 400 μM ATP and incubated for an additional 30 minutes. The reaction was terminated by adding 5 μl/well stop solution (Millipore, Billerica, Mass.). 5 μl of detection mix (Millipore, Billerica, Mass.) was then added to each well and incubated for 6-18 hours in the dark. HRTF ratio was measured on a microplate reader (BMG Labtech., Germany) at an excitation wavelength of 337 nm and emission wavelengths of 665 and 615 nm with an integration time of 400 msec counting delay of 50 msec.
On the technique in general: In TR-FRET formats the signal depends on donor and acceptor labels being close together.

The target of data set [7] is PI3Kγ (Homo sapiens, UniProt P48736). The data set can be described thus: Assay 1: Fluorescent (HTRF) determination of PI3 kinase enzyme activity, PI3Kγ. It is filed as biochemical.
Source text: as §2, §3

The conditions of data set [8]: reported at 55th ASH Annual Meeting, 2013; cited from earlier work.
A short description of data set [9]: Oral pharmacokinetics in rats. The data set is classed as in vivo. The settings on record: Rat, 10 mg/kg. Here is the method:
The oral bioavailability of Compound A1 (free base) was evaluated in rats and mice. The protocol for the pharmacokinetics studies in rat is provided below.
All animals were fasted overnight (12 hours) before dosing and continued till 4.0 hours after administration of test item. Test item formulations were prepared in 1% Tween 80 and 99% media (0.5% Methyl cellulose, 4000cPs, pH 2.2). The blood samples (150 μL from each animal) were collected from the orbital sinus, and placed into a micro centrifuge tube containing disodium EDTA as an anticoagulant. Blood samples were centrifuged immediately with a speed of 1000 g for 10 min at 4° C. and separated plasma samples were frozen at below −80° C. and stored until analysis. The concentrations of test item in all formulations were analyzed by HPLC. The plasma concentrations of test item in all samples were analyzed by LC-MS/MS. Pharmacokinetic parameters (Cmax, AUC0-t, Tmax, and t^1/2) were estimated by using WinNonlin software. Results are provided in Table 3 for Compound A, A1, and Example 128 of WO 2012/151525 in rats and Compound A1 in mice.

Sequence of PI3Kγ (P48736 whole entry): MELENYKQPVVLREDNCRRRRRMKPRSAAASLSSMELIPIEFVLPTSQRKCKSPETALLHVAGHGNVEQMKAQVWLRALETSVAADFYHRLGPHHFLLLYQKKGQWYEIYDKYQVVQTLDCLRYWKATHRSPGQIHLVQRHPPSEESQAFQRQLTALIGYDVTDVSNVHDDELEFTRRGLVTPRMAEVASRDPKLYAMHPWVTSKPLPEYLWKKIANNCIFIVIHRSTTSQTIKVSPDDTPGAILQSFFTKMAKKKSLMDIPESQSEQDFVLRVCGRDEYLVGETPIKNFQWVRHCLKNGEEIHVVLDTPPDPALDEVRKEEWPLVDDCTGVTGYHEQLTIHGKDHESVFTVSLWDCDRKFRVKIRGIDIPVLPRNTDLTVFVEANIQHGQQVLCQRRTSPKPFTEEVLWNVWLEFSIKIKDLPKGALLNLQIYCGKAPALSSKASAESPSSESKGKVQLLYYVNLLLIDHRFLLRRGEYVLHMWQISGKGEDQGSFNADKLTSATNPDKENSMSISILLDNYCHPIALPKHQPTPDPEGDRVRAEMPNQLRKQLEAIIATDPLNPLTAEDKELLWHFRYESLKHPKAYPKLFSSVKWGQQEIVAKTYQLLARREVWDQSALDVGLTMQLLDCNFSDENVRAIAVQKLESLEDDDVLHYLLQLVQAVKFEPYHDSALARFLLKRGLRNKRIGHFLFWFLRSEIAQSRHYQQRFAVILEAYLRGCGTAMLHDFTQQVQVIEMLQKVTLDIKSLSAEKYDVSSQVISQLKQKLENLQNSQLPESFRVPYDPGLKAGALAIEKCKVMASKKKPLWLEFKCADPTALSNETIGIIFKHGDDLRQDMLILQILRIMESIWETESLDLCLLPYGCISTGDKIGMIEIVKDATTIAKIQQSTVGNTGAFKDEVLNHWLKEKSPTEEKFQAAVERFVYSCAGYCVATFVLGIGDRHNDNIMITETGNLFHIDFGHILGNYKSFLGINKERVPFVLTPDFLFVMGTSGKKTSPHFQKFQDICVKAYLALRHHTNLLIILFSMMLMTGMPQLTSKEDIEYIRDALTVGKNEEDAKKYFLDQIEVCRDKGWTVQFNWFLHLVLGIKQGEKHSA
Sequence of PI3Kδ (O00329 whole entry, canonical isoform): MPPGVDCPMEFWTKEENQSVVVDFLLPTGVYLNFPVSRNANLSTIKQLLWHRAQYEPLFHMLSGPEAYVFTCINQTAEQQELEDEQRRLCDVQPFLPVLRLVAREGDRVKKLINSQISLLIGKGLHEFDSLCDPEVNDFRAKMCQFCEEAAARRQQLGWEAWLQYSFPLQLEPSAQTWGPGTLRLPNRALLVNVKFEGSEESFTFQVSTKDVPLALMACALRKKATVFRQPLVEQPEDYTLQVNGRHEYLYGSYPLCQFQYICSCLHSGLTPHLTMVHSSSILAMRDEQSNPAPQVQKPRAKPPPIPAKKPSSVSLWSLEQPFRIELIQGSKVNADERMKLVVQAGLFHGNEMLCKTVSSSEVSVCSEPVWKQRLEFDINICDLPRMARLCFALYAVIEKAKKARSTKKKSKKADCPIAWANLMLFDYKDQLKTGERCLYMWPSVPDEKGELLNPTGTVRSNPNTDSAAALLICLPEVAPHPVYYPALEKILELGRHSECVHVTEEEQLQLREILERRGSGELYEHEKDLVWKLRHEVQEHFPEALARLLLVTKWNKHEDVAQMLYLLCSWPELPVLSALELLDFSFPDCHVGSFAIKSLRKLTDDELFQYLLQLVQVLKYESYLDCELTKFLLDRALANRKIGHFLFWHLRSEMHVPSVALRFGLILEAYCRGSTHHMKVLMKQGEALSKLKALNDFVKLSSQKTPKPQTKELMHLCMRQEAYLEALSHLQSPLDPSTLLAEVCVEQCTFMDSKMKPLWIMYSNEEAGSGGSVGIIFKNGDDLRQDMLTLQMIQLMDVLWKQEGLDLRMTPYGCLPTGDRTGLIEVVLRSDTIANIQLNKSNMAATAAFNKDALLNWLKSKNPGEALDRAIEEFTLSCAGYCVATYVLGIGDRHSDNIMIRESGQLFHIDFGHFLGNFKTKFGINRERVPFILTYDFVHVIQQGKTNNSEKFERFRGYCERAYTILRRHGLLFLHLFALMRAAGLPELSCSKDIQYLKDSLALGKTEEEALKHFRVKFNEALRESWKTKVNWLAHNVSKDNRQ
Sequence of PI3Kδ (P27986 whole entry partner, canonical isoform): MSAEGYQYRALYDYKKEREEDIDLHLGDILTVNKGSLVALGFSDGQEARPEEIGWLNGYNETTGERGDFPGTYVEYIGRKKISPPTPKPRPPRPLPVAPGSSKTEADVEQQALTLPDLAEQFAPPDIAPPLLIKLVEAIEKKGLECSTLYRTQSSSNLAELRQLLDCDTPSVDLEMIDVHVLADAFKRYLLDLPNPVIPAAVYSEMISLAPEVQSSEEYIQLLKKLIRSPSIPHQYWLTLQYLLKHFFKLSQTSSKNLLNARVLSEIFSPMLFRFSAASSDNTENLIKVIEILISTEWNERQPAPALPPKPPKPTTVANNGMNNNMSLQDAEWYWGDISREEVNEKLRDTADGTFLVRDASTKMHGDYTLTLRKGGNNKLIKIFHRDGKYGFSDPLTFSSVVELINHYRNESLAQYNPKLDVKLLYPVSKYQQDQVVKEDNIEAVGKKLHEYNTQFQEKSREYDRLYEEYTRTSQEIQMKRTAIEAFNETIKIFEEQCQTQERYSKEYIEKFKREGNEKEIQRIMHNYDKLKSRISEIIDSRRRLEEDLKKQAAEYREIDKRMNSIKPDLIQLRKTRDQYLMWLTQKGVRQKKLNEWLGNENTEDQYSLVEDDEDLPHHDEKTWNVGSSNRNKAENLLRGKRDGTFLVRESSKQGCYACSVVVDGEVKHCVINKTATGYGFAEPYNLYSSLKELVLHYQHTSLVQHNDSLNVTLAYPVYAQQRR

In general, IC50 refers to the concentration that gives 50% inhibition. For the compound `COc1ccc(-c2nn([C@H](C)c3oc4cccc(F)c4c(=O)c3-c3cccc(F)c3)c3ncnc(N)c23)cc1NS(C)(=O)=O` [Compound A2, (R)—N-(5-(4-amino-1-(1-(5-fluoro-3-(3-fluorophenyl)-4-oxo-4H-chromen-2-yl)ethyl)-1H-pyrazolo[3,4-d]pyrimidin-3-yl)-2-methoxyphenyl)methanesulfonamide], the “Metabolic stability in liver microsomes (percent parent compound remaining), Mouse” value in data set [1] amounted to 68.9%. For the same compound, the “Metabolic stability in liver microsomes (percent parent compound remaining), Rat” value in data set [2] is given as 79.5%. Further, the “Metabolic stability in liver microsomes (percent parent compound remaining), Dog” value in data set [3] is given as 52.3%. For the same compound, in data set [4], the “Metabolic stability in liver microsomes (percent parent compound remaining), Monkey” value amounted to 1.9%. Further, in data set [5], the “Metabolic stability in liver microsomes (percent parent compound remaining), Human” value amounted to 60.2%. The IC50 in [6] was 92.9 nM; in [7] (read-out: IC50 (nM) PI3Kγ), > 10000 nM; in data set [7] (read-out: IC50 Pi3Kγ (cell prints μM)) it was > 10000 nM.

With `C[C@H](Nc1ncnc2[nH]cnc12)c1cc2cccc(Cl)c2c(=O)n1-c1ccccc1` [IPI-45], the “maximum tolerated dose (MTD)” value in [8] is 75 mg BID.

What is called AUC(0-t) is exposure summed from dosing to a finite time, without extrapolation to infinity. By Cmax is commonly meant the maximum level reached in the sampled fluid or tissue. One may read the Tmax as the time at which the peak concentration occurs. What is called half-life is the time needed for the level to fall by half in the phase considered. In the case of `COc1ccc(-c2nn(C(C)c3oc4cccc(F)c4c(=O)c3-c3cccc(F)c3)c3ncnc(N)c23)cc1NS(C)(=O)=O` (racemic) [Compound A, (RS)—N-(5-(4-amino-1-(1-(5-fluoro-3-(3-fluorophenyl)-4-oxo-4H-chromen-2-yl)ethyl)-1H-pyrazolo[3,4-d]pyrimidin-3-yl)-2-methoxyphenyl)methanesulfonamide], the “Metabolic stability in liver microsomes (percent parent compound remaining), Mouse” value in data set [1] is on record as 96%. Further, the “Metabolic stability in liver microsomes (percent parent compound remaining), Rat” value in data set [2] amounted to 91%. In addition, the “Metabolic stability in liver microsomes (percent parent compound remaining), Dog” value in data set [3] is on record as 64.3%. The “Metabolic stability in liver microsomes (percent parent compound remaining), Monkey” value in data set [4] is listed as 42.3%. For the same compound, the “Metabolic stability in liver microsomes (percent parent compound remaining), Human” value in data set [5] is reported as 69.7%. In [9], the “fold increase in AUC0-t as compared to Example 128 of WO 2012/151525” value was ~4 fold, the “fold increase in Cmax as compared to Example 128 of WO 2012/151525” value was ~1.5 fold and the “fold increase in t1/2 as compared to Example 128 of WO 2012/151525” value was ~2.8 fold. Also, in [9] (plasma), the AUC(0-t) was 7.95 µM·h, the Cmax is 1020 nM, the Tmax was 2.67 h and the half-life was 4.52 h. The same compound registered an IC50 in data set [6] of 103 nM. Also, the IC50 in [7] (read-out: IC50 (nM) PI3Kγ) worked out at 82.9 nM.
